Data published in patent US5496853A, “Benzoxa condensed ring compounds, process for producing the same and pharmaceutical composition comprising the same” (Teijin Limited, priority 1990, dated 1996).
Counter-ions that a name gives are not always drawn.

Assays:
ACAT = target: T1, ACAT (Oryctolagus cuniculus, UniProt G1SFD9); experiment: ACAT enzyme inhibitory activity of rabbit intestinal mucosa; type: biochemical; conditions: rabbit intestinal mucosa microsome, [1-14C] oleoyl CoA, 37° C., pH 7.4
T1 construct: from tissue; host or cells: domestic rabbit intestinal mucosa, microsome fraction (105,000×g precipitate)
T1 sequence (G1SFD9 1-524): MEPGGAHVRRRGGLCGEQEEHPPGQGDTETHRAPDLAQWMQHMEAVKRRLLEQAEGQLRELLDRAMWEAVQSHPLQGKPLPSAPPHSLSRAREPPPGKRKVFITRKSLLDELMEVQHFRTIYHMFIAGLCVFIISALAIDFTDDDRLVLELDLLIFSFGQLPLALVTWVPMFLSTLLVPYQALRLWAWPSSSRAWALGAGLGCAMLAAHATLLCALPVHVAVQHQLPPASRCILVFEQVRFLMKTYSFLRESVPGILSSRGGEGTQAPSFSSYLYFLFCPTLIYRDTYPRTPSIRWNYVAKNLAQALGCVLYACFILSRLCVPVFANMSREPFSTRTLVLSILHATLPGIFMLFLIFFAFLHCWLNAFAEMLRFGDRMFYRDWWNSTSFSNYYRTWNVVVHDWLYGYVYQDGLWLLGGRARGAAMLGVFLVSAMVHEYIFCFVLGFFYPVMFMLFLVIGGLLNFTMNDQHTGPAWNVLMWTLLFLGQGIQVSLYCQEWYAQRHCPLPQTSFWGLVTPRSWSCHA
Description: Measurement of ACAT enzyme inhibitory activity (measurement of ACAT enzyme inhibitory activity of rabbit intestinal mucosa)
Preparation of a domestic rabbit intestinal mucosa microsome and measurement of the ACAT enzyme activity were conducted by slightly modifying a method established by Salone and Field (see Biochemica et Biophysica, vol. 712, 557 (1982).
The supernatant was further centrifuged at 105,000×g and a temperature of 4° C. for one hour to provide a precipitate. The precipitate was resuspended in the buffer A to provide a microsome fraction.
A 1 %v/v dimethylsulfoxide solution of each specimen compound in a predetermined concentration was added to the buffer A containing 43 μM serum albumin and 0.5 mg/ml microsome fraction, and the mixture was heated at 37° C. for 5 min.
Then, 43 μM oleoyl CoA containing [1^-14 C] oleoyl CoA (3.7 kB) was added thereto, the mixture was heated at 37° C. for 10 rain, and chloroform/methanol (2/1) containing 10 mg/ml cholesteryl oleate was added thereto to terminate the reaction.
0.111 kB of [^3 H] cholesteryl oleate and 1N hydrochloric acid were added thereto, and the mixture was stirred. The cholesteryl oleate extracted into the chloroform layer was isolated by thin-layer chromatography, and the radioactivity was measured as the ACAT activity.

serum cholesterol = experiment: percentage change of serum cholesterol in cholesterol-fed rats; type: in vivo, Male Wistar rats; conditions: Rattus norvegicus, 72 h, once a day for three days, cholesterol-enriched feed, vs control; for change in vivo at 1 mg/kg: 1 mg/kg oral; for change in vivo at 10 mg/kg: 10 mg/kg oral
Text: Measurement of percentage change of serum cholesterol
Male Wistar rats having a weight of 200 g were preliminarily bred for 7 days while they freely ingested a normal feed (CE-2 manufactured by CLEA Japan Inc.).
Thereafter, they were bred for 3 days while they freely ingested a feed enriched with cholesterol and fat (2% cholesterol, 1% cholic acid, 20% casein, 45% fine granulated sugar, 12% coconut oil, 4% KC flock, 1% mixed vitamin, 7% mixed mineral and 8% dried fish powder; a product of CLEA Japan Inc.). During the cholesterol loading period, the test compound of the present invention was orally administered to the above test animals at a dose of 0.1 to 10 mg per kg of the weight once a day for three days. On the other hand, the excipient alone was administered to the control animals.
After 8 hrs from the last administration, the test animals were fasted. 16 hr after the initiation of the fasting, these test animals were slaughtered. The serum cholesterol level was measured for each animal.
The results were compared with those of the control and are given as percentage serum cholesterol (%) in Table 3.
Percentage change of serum cholesterol (%)={(A-B)/B}×100
wherein A represents the total cholesterol level of serum in the group of rats to which the test compound was administered; and B represents the total cholesterol level of serum in the control group of rats.

SMILES	IC50 (ACAT) [nM]	change in vivo at 1 mg/kg (serum cholesterol) [%]	change in vivo at 10 mg/kg (serum cholesterol) [%]
CCCCCCCCCCC1(C(=O)Nc2cccc3nc(-c4cccnc4)oc23)CCCC1 [Ex. 2, N-[2-(3-pyridyl)benzoxazol-7-yl]-1-decylcyclopentanecarboxamide]	830		
Cc1ccc2c(c1NC(=O)NCC1(c3ccccc3)CCCC1)OC(C)(C)C2 [Ex. 3]	340		
CCCCCCCCCCC(C)(C)C(=O)Nc1c(C)cc(C)c2c1OC(C)(C)C2 [Ex. 5, N-(2,2,4,6-tetramethyl-2,3-dihydrobenzofuran-7-yl)-2,2-dimethyldodecaneamide]		-61	
CCCCCCCCCCC(C)(C)C(=O)Nc1c(C)c([N+](=O)[O-])c(C)c2c1OC(C)(C)C2 [Ex. 6, N-(2,2,4,6-tetramethyl-5-nitro-2,3-dihydrobenzofuran-7-yl)-2,2-dimethyldodecaneamide]	19		
CCCCCCCCCCC(C)(C)C(=O)Nc1c(C)c(N(C)C)c(C)c2c1OC(C)(C)C2 [Ex. 8, N-(5-dimethylamino-2,2,4,6-tetramethyl-2,3-dihydrobenzofuran-7-yl)-2,2-dimethyldodecaneamide]		-71	
Cc1cc(C)c(NC(=O)C(C)(C)CCCCCOc2ccc([N+](=O)[O-])cc2)c2c1CC(C)(C)O2 [Ex. 10, N-(2,2,4,6-tetramethyl-2,3-dihydrobenzofuran-7-yl)-[2,2-dimethyl-7-(4-nitrophenyloxy)]heptaneamide]	230		
Cc1cc2nc(-c3ccccc3)oc2c(NC(=O)NCC2(c3ccccc3)CCCC2)c1C [Ex. 13]	400		
CCCCCCCCCCC1(C(=O)Nc2cccc3nc(-c4ccccc4)oc23)CCCC1 [Ex. 18]	500		
CCCCCCCCCCC1(C(=O)Nc2c(C)c(C)cc3nc(-c4ccccc4)oc23)CCCC1 [Ex. 20]			-46
CCCCCCCCCCCCNC(=O)Nc1c(C)ccc2c1OC(C)(C)C2 [Ex. 23]	220		
CCCOCCCCCCOc1ccc(C(=O)Nc2c(C)cc(C)c3c2OC(C)(C)C3)cc1 [Ex. 29]		-23	
CCCCCCCCCCNc1ccc(C(=O)Nc2c(C)cc(C)c3c2OC(C)(C)C3)cc1 [Ex. 33]	110		
CCCCCCCCCCC1(C(=O)Nc2c(C)ccc3c2OC(C)(C)C3)CCCC1 [Ex. 36]			-52
Cc1ccc2c(c1NC(=O)C(C)(C)CCCCOc1ccc(C(C)(C)C)cc1)OC(C)(C)C2 [Ex. 37]	340		
Cc1cc(C)c(NC(=O)C(C)(C)CCCCCCBr)c2c1CC(C)(C)O2 [Ex. 38]	180		
CCCCCCCCC(C)(C)C(=O)Nc1c(C)cc(C)c2c1OC(C)(C)C2 [Ex. 39]	72		

SMILES	IC50 (ACAT) [nM]	change in vivo at 1 mg/kg (serum cholesterol) [%]	change in vivo at 10 mg/kg (serum cholesterol) [%]
Cc1cc(C)c(NC(=O)C(C)(C)CCCCCc2ccccc2)c2c1CC(C)(C)O2 [Ex. 42]		-44	
CCCc1ccc(CCCC(C)(C)C(=O)Nc2c(C)cc(C)c3c2OC(C)(C)C3)cc1 [Ex. 44]	66		
Cc1cc(C)c(NC(=O)C(C)(C)CCCc2ccc(CC(C)C)cc2)c2c1CC(C)(C)O2 [Ex. 45]	28	-58	
CCCCCCOc1ccc(CCCC(C)(C)C(=O)Nc2c(C)cc(C)c3c2OC(C)(C)C3)cc1 [Ex. 46]	34		
Cc1cc(C)c(NC(=O)C(C)(C)CCCCOCCCC(C)C)c2c1CC(C)(C)O2 [Ex. 47]	190		
Cc1cc(C)c(NC(=O)C(C)(C)CCCCCCOCCCC(C)C)c2c1CC(C)(C)O2 [Ex. 48]	57		
Cc1cc(C)c(NC(=O)C(C)(C)CCCCCCOCC(C)C)c2c1CC(C)(C)O2 [Ex. 49]		-50	
Cc1cc(C)c(NC(=O)C(C)(C)CCCCCCOCC(C)(C)C)c2c1CC(C)(C)O2 [Ex. 50]	45		-54
Cc1cc(C)c(NC(=O)C(C)(C)CCCCOCc2ccccc2)c2c1CC(C)(C)O2 [Ex. 53]			-50
Cc1cc(C)c(NC(=O)C(C)(C)CCCCCOCCc2ccccc2)c2c1CC(C)(C)O2 [Ex. 54]	100		
Cc1cc(C)c(NC(=O)C(C)(C)CCCCCOCCOC(C)C)c2c1CC(C)(C)O2 [Ex. 55]	170		
COCCCCCCC(C)(C)C(=O)Nc1c(C)cc(C)c2c1OC(C)(C)C2 [Ex. 56]	330		
Cc1cc(C)c(NC(=O)C(C)(C)CCCCOc2ccc(Cl)cc2)c2c1CC(C)(C)O2 [Ex. 59]		-43	
Cc1cc(C)c(NC(=O)C(C)(C)CCCCCOc2ccc(Cl)cc2)c2c1CC(C)(C)O2 [Ex. 61]		-64	
Cc1cc(C)c(NC(=O)C(C)(C)CCCCCCOc2ccc(Cl)cc2)c2c1CC(C)(C)O2 [Ex. 68]		-75	

Continued, in another order:

IC50 (ACAT) [nM]	SMILES	change in vivo at 1 mg/kg (serum cholesterol) [%]	change in vivo at 10 mg/kg (serum cholesterol) [%]
170	Cc1cc(C)c(NC(=O)C(C)(C)CCCCOc2ccc(C(C)(C)C)cc2)c2c1CC(C)(C)O2 [Ex. 58]		-27
64	Cc1ccc(OCCCCCC(C)(C)C(=O)Nc2c(C)cc(C)c3c2OC(C)(C)C3)cc1 [Ex. 62]	-18	
220	Cc1cc(C)c(NC(=O)C(C)(C)CCCCCOc2ccc(Cl)cc2Cl)c2c1CC(C)(C)O2 [Ex. 63]		
910	Cc1ccc(OCCCCCC(C)(C)C(=O)Nc2c(C)cc(C)c3c2OC(C)(C)C3)c(C)c1 [Ex. 64]		
86	Cc1cc(C)c(NC(=O)C(C)(C)CCCCCOc2ccc(C(C)C)cc2)c2c1CC(C)(C)O2 [Ex. 65]		
460	Cc1cc(C)c(NC(=O)C(C)(C)CCCCCOc2ccc(N)cc2)c2c1CC(C)(C)O2 [Ex. 66]		
190	Cc1cc(C)c(NC(=O)C(C)(C)CCCCCOc2ccc(N(C)C)cc2)c2c1CC(C)(C)O2 [Ex. 67]		
110	Cc1cc(C)c(NC(=O)C(C)(C)CCCCCCOc2ccc(F)cc2)c2c1CC(C)(C)O2 [Ex. 70]		
130	Cc1cc(C)c(NC(=O)C(C)(C)CCCCCCOc2ccc(N(C)C)cc2)c2c1CC(C)(C)O2 [Ex. 71]	-49	
340	Cc1cc(C)c(NC(=O)C(C)(C)CCCCCCNCc2ccc(Cl)cc2)c2c1CC(C)(C)O2 [Ex. 73 (HCl salt)]		
330	Cc1cc(C)c(NC(=O)C(C)(C)CCCCCCN(C)Cc2ccccc2)c2c1CC(C)(C)O2 [Ex. 74 (HCl salt)]		
120	Cc1cc(C)c(NC(=O)C(C)(C)CCCCCCN(C)Cc2ccc(Cl)cc2)c2c1CC(C)(C)O2 [Ex. 75]		
330	Cc1cc(C)c(NC(=O)C(C)(C)CCCCN2CCN(Cc3ccccc3)CC2)c2c1CC(C)(C)O2 [Ex. 78]		-43
350	Cc1cc(C)c(NC(=O)C(C)(C)CCCCCCN2CCN(Cc3ccccc3)CC2)c2c1CC(C)(C)O2 [Ex. 79]		
40	CCCCCCCCCCOc1ccc(C(=O)C(C)(C)C(=O)Nc2c(C)cc(C)c3c2OC(C)(C)C3)cc1 [Ex. 80]		
260	CCCCCCCCCCCCCCCC(=O)Nc1c(C)cc(C)c2c1OC(C)(C)C2 [Ex. 81]		
72	CCCCCCCCCCCCCCCC(=O)Nc1c(C)c(Cl)c(C)c2c1OC(C)(C)C2 [Ex. 83]		
110	CCCCCCCCCCOc1ccc(C(=O)CC(=O)Nc2c(C)cc(C)c3c2OC(C)(C)C3)cc1 [Ex. 88, N-(2,2,4,6-tetramethyl-2,3-dihydrobenzofuran-7-yl)3-(4-decyloxyphenyl)-3-oxpropaneamide]		
